The values below come from patent US9409943B2 (Bristol-Myers Squibb Company, priority 2012, dated 2016).

In experiment [1] the test system is HCV GT1b(Con1) replicon. Put plainly: HCV replicon luciferase reporter assay, genotype 1b. The class given is cell-based, HCV genotype 1b. Conditions: Hepatitis C virus, 72 h, HUH-7 cells, 3 days incubation. The text has this:
An HCV GT1b(Con1) replicon cell system was established as described by Lohmann V, Korner F, Koch J, Herian U, Theilmann L, Bartenschlager R., Science 285(5424):110-3 (1999) and modified to introduce a luciferase reporter (Krieger N, Lohmann V, and Bartenschlager R, J. Virol. 75(10):4614-4624 (2001)). cDNA encoding a humanized form of the Renilla luciferase gene, and a linker sequence fused directly to the 3′-end of the luciferase gene were introduced into the replicon construct using an Asc1 restriction site located in core, directly upstream of the neomycin marker gene. The adaptive mutation at position 1179 (serine to isoleucine) was also introduced (Blight K J, Kolykhalov, A A, Rice, C M, Science 290(5498):1972-1974). A stable cell line constitutively expressing this HCV replicon construct was generated by first linearizing plasmid DNAs with ScaI. RNA transcripts were synthesized in vitro using the T7 MegaScript transcription kit (Ambion, Austin, Tex.) according to manufacturer's directions. In vitro transcripts of the cDNA were transfected into the human hepatoma cell line, HUH-7. […] Resulting cell lines were characterized for positive and negative strand RNA production and protein production over time.
(§1) HCV replicon luciferase assays were developed to monitor the inhibitory effects of compounds described in the disclosure on HCV genotypes 1a and 1b viral replication. HUH-7 cells, constitutively expressing the HCV replicon, were grown in Dulbecco's Modified Eagle Media (DMEM) (Gibco-BRL) containing 10% Fetal calf serum (FCS) (Sigma) and 1 mg/mL G418 (Gibco-BRL). Compounds were serially diluted 3 folds in DMSO for a twenty-point titration and subsequently transferred to sterile 384-well tissue-culture treated plates (Corning cat #3571). The plates were then seeded with 50 μL of cells at a density of 3.0×10^3 cells/well in DMEM containing 4% FCS (final DMSO concentration at 0.5%). After 3 days incubation at 37° C., cells were analyzed for Renilla Luciferase activity using the EnduRen as substrate (Promega cat #E6485). The EnduRen substrate was diluted in DMEM and then added to the plates to a final concentration of 7.5 μM. The plates were incubated for 2 hrs at 37° C. and then read immediately for 30 seconds with Viewlux Imager (PerkinElmer) using a luminescence program. To assess cytotoxicity of compounds, CC50 values were generated by multiplexing the EnduRen-containing plates with Cell Titer-Blue (Promega, cat # G8082). Cell-Titer Blue (3 μL) was added to each well and incubated for 8 hrs at 37° C. The fluorescence signal from each well was read, with an excitation wavelength at 525/10 nm and an emission wavelength of 598/10 nm, using the Viewlux Imager.
(§2) The EC50 values for compounds were calculated by using a four-parameter logistic equation: y=A+((B−A)/(1+((C/x)^D))), where A and B denotes minimal and maximal % inhibition, respectively, C is the EC50, D is the hill slope and x represents compound concentration.

The test system of experiment [2] is HCV GT1a(H77) replicon. Description: HCV replicon luciferase reporter assay, genotype 1a. Conditions: Hepatitis C virus, 72 h, HUH-7 cells, 3 days incubation. The class given is cell-based, HCV genotype 1a.
Source text: A stable HCV GT1a(H77) replicon luciferase reporter cell line (Yanagi M, Purcell R H, Emerson S U, et al. Transcripts from a single full-length cDNA clone of hepatitis C virus are infectious when directly transfected into the liver of a chimpanzee. Proc Natl Acad Sci USA 1997; 94(16):8738-8743) was generated as described previously for the genotype 1b(Con1) replicon luciferase cell line. The replicon construct was modified by introducing mutations into the genes encoding the NS3 helicase domain (proline replaced by leucine at position 1496) and NS5A (serine to isoleucine at position 2204) to improve replication in cell culture.
as §1, §2

Like-named read-outs stand apart in the source and are kept apart here.

Turning to `C[C@@H]1CC/C=C\[C@@H]2C[C@@]2(C(=O)NS(=O)(=O)C2(CF)CC2)NC(=O)[C@@H]2C[C@@H](OC(=O)c3ccccc3C(F)(F)F)CN2C(=O)[C@@H](NC(=O)OC(C)(C)C(F)(F)F)[C@H](C)C1` [Compound 1002, (2R,6S,7R,9R,13aS,14aR,16aS,Z)-14a-(((1-(fluoromethyl)cyclopropyl)sulfonyl)carbamoyl)-7,9-dimethyl-5,16-dioxo-6-((((1,1,1-trifluoro-2-methylpropan-2-yl)oxy)carbonyl)amino)-1,2,3,5,6,7,8,9,10,11,13a,14,14a,15,16,16a-hexadecahydrocyclopropa[e]pyrrolo[1,2-a][1,4]diazacyclopentadecin-2-yl 2-(trifluoromethyl)benzoate], the EC50 in experiment [1] (read-out: LE_1b (EC50, range)) lay within 1.01 to 5 nM; in experiment [2] (read-out: LE_1a (EC50, range)) it was 5.01 to 35 nM.

For the compound `COc1ccc(C(=O)O[C@@H]2C[C@H]3C(=O)N[C@]4(C(=O)NS(=O)(=O)C5(C)CC5)C[C@H]4/C=C\CC[C@@H](C)C[C@@H](C)[C@H](NC(=O)OC(C)(C)C)C(=O)N3C2)cc1` [Compound 1003, (2R,6S,7R,9R,13aS,14aR,16aS,Z)-6-((tert-butoxycarbonyl)amino)-7,9-dimethyl-14a-(((1-methylcyclopropyl)sulfonyl)carbamoyl)-5,16-dioxo-1,2,3,5,6,7,8,9,10,11,13a,14,14a,15,16,16a-hexadecahydrocyclopropa[e]pyrrolo[1,2-a][1,4]diazacyclopentadecin-2-yl 4-methoxybenzoate], the concentration giving a half-maximal response (EC50) in experiment [1] (read-out: LE_1b (EC50, range)) is 5.01 to 35 nM; in experiment [2] (read-out: LE_1a (EC50, range)) it was 5.01 to 35 nM.

As for `COc1ccc(C(=O)O[C@@H]2C[C@H]3C(=O)N[C@]4(C(=O)NS(=O)(=O)C5(C)CC5)C[C@H]4/C=C\CC[C@@H](C)C[C@@H](C)[C@H](NC(=O)OC(C)(C)C(F)(F)F)C(=O)N3C2)cc1` [Compound 1005, (2R,6S,7R,9R,13aS,14aR,16aS,Z)-7,9-dimethyl-14a-(((1-methylcyclopropyl)sulfonyl)carbamoyl)-5,16-dioxo-6-((((1,1,1-trifluoro-2-methylpropan-2-yl)oxy)carbonyl)amino)-1,2,3,5,6,7,8,9,10,11,13a,14,14a,15,16,16a-hexadecahydrocyclopropa[e]pyrrolo[1,2-a][1,4]diazacyclopentadecin-2-yl 4-methoxybenzoate], the EC50 was 0.75 nM in experiment [1] (read-out: LE_1b (EC50)); 0.51 to 1 nM in experiment [1] (read-out: LE_1b (EC50, range)); 1.15 nM in experiment [2] (read-out: LE_1a (EC50)); 1.01 to 5 nM in experiment [2] (read-out: LE_1a (EC50, range)).

In the case of `C[C@@H]1CC/C=C\[C@@H]2C[C@@]2(C(=O)NS(=O)(=O)C2(CF)CC2)NC(=O)[C@@H]2C[C@@H](OC(=O)c3ccc4ccccc4c3)CN2C(=O)[C@@H](NC(=O)OC(C)(C)C(F)(F)F)[C@H](C)C1` [Compound 1006], the EC50 in experiment [1] (read-out: LE_1b (EC50, range)) lay in the range of 1.01 to 5 nM; in experiment [2] (read-out: LE_1a (EC50, range)), 1.01 to 5 nM.

For the compound `COc1ccccc1C(=O)O[C@@H]1C[C@H]2C(=O)N[C@]3(C(=O)NS(=O)(=O)C4(CF)CC4)C[C@H]3/C=C\CC[C@@H](C)C[C@@H](C)[C@H](NC(=O)OC(C)(C)C(F)(F)F)C(=O)N2C1` [Compound 1008, (2R,6S,7R,9R,13aS,14aR,16aS,Z)-14a-(((1-(fluoromethyl)cyclopropyl)sulfonyl)carbamoyl)-7,9-dimethyl-5,16-dioxo-6-((((1,1,1-trifluoro-2-methylpropan-2-yl)oxy)carbonyl)amino)-1,2,3,5,6,7,8,9,10,11,13a,14,14a,15,16,16a-hexadecahydrocyclopropa[e]pyrrolo[1,2-a][1,4]diazacyclopentadecin-2-yl 2-methoxybenzoate], the EC50 in experiment [1] (read-out: LE_1b (EC50, range)) lay within 1.01 to 5 nM; in experiment [2] (read-out: LE_1a (EC50, range)), 5.01 to 35 nM.

As for `C[C@@H]1CC/C=C\[C@@H]2C[C@@]2(C(=O)NS(=O)(=O)C2(CF)CC2)NC(=O)[C@@H]2C[C@@H](OC(=O)c3cccc(F)c3)CN2C(=O)[C@@H](NC(=O)OC(C)(C)C(F)(F)F)[C@H](C)C1` [Compound 1010, (2R,6S,7R,9R,13aS,14aR,16aS,Z)-14a-(((1-(fluoromethyl)cyclopropyl)sulfonyl)carbamoyl)-7,9-dimethyl-5,16-dioxo-6-((((1,1,1-trifluoro-2-methylpropan-2-yl)oxy)carbonyl)amino)-1,2,3,5,6,7,8,9,10,11,13a,14,14a,15,16,16a-hexadecahydrocyclopropa[e]pyrrolo[1,2-a][1,4]diazacyclopentadecin-2-yl 3-fluorobenzoate], the EC50 lay in the range of 1.01 to 5 nM in experiment [1] (read-out: LE_1b (EC50, range)) and 5.01 to 35 nM in experiment [2] (read-out: LE_1a (EC50, range)).

Turning to `C[C@@H]1CC/C=C\[C@@H]2C[C@@]2(C(=O)NS(=O)(=O)C2(CF)CC2)NC(=O)[C@@H]2C[C@@H](OC(=O)c3ccc4c(c3)OCO4)CN2C(=O)[C@@H](NC(=O)OC(C)(C)C(F)(F)F)[C@H](C)C1` [Compound 1011, (2R,6S,7R,9R,13aS,14aR,16aS,Z)-14a-(((1-(fluoromethyl)cyclopropyl)sulfonyl)carbamoyl)-7,9-dimethyl-5,16-dioxo-6-((((1,1,1-trifluoro-2-methylpropan-2-yl)oxy)carbonyl)amino)-1,2,3,5,6,7,8,9,10,11,13a,14,14a,15,16,16a-hexadecahydrocyclopropa[e]pyrrolo[1,2-a][1,4]diazacyclopentadecin-2-yl benzo[d][1,3]dioxole-5-carboxylate], the EC50 in experiment [1] (read-out: LE_1b (EC50)) was 1.68 nM; in experiment [1] (read-out: LE_1b (EC50, range)) it was 1.01 to 5 nM; in experiment [2] (read-out: LE_1a (EC50)) it was 7.98 nM; in experiment [2] (read-out: LE_1a (EC50, range)) it was 5.01 to 35 nM.

For `C[C@H]1CC/C=C\[C@@H]2C[C@@]2(C(=O)NS(=O)(=O)C2(C)CC2)NC(=O)[C@@H]2C[C@@H](OC(=O)c3ccc4c(c3)OCCO4)CN2C(=O)[C@@H](NC(=O)OC(C)(C)C)[C@H](C)C1` [Compound 1012, (2R,6S,7R,9S,13aS,14aR,16aS,Z)-6-((tert-butoxycarbonyl)amino)-7,9-dimethyl-14a-(((1-methylcyclopropyl)sulfonyl)carbamoyl)-5,16-dioxo-1,2,3,5,6,7,8,9,10,11,13a,14,14a,15,16,16a-hexadecahydrocyclopropa[e]pyrrolo[1,2-a][1,4]diazacyclopentadecin-2-yl 2,3-dihydrobenzo[b][1,4]dioxine-6-carboxylate], the EC50 lay in the range of 1.01 to 5 nM in experiment [1] (read-out: LE_1b (EC50, range)) and 5.01 to 35 nM in experiment [2] (read-out: LE_1a (EC50, range)).

`C[C@@H]1CC/C=C\[C@@H]2C[C@@]2(C(=O)NS(=O)(=O)C2(C)CC2)NC(=O)[C@@H]2C[C@@H](OC(=O)c3ccc4c(c3)OCCO4)CN2C(=O)[C@@H](NC(=O)OC(C)(C)C)[C@H](C)C1` [Compound 1013, (2R,6S,7R,9R,13aS,14aR,16aS,Z)-6-((tert-butoxycarbonyl)amino)-7,9-dimethyl-14a-(((1-methylcyclopropyl)sulfonyl)carbamoyl)-5,16-dioxo-1,2,3,5,6,7,8,9,10,11,13a,14,14a,15,16,16a-hexadecahydrocyclopropa[e]pyrrolo[1,2-a][1,4]diazacyclopentadecin-2-yl 2,3-dihydrobenzo[b][1,4]dioxine-6-carboxylate]: the EC50 in experiment [1] (read-out: LE_1b (EC50, range)) is 1.01 to 5 nM; in experiment [2] (read-out: LE_1a (EC50, range)), 1.01 to 5 nM.

Consider `C[C@@H]1CC/C=C\[C@@H]2C[C@@]2(C(=O)NS(=O)(=O)C2(C)CC2)NC(=O)[C@@H]2C[C@@H](OC(=O)c3ccc4c(c3)OCCO4)CN2C(=O)[C@@H](NC(=O)OC(C)(C)C(F)(F)F)[C@H](C)C1` [Compound 1015, (2R,6S,7R,9R,13aS,14aR,16aS,Z)-7,9-dimethyl-14a-(((1-methylcyclopropyl)sulfonyl)carbamoyl)-5,16-dioxo-6-((((1,1,1-trifluoro-2-methylpropan-2-yl)oxy)carbonyl)amino)-1,2,3,5,6,7,8,9,10,11,13a,14,14a,15,16,16a-hexadecahydrocyclopropa[e]pyrrolo[1,2-a][1,4]diazacyclopentadecin-2-yl 2,3-dihydrobenzo[b][1,4]dioxine-6-carboxylate], for which the EC50 fell in the range of 1.01 to 5 nM in experiment [1] (read-out: LE_1b (EC50, range)) and 5.01 to 35 nM in experiment [2] (read-out: LE_1a (EC50, range)).
